These results are taken from patent US7473541B2, “Identification, cloning, expression, and purification of three novel human calcium-independent phospholipase A2 family members possessing triacylglycerol lipase and acylglycerol transacylase activities” (priority 2004, dated 2009).

Structures are written as SMILES.

In one assay the target is T1, iPLA2epsilon (Homo sapiens, UniProt Q9NST1, K434E).
T1 construct: used as a template for PCR to obtain full-length CDNA for iPLA2epsilon; made in house; host or cells: Sf9 insect cells (baculovirus)
T1 sequence (Q9NST1 with tags, fused parts or gaps K434E): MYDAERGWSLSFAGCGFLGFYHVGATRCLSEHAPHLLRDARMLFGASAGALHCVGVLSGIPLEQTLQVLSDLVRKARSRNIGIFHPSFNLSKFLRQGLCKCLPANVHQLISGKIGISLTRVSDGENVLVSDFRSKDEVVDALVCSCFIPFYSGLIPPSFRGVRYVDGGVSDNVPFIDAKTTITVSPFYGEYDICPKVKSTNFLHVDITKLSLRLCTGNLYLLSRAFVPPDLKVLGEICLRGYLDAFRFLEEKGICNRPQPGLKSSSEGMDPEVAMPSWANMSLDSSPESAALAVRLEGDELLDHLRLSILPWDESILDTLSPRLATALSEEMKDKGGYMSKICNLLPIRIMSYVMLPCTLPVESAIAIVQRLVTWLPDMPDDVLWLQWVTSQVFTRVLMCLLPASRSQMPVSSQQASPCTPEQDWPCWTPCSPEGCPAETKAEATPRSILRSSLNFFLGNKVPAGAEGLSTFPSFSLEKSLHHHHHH
Briefly: Triolein lipase activity inhibition by BEL. Type of assay: biochemical. The following applies: pre-incubated with 0.1-2 microM BEL prior to substrate. The protocol: (§1) Assay for Triolein Lipase Activity—Sample fractions were incubated in 85 mM potassium phosphate, pH 7.0 containing 2 mM EDTA and 2 mM DTT for 15 min at 37° C. in the presence of a suspension of 100 microM [9,10-^3H(N)]-triolein (100 microCi/micromol) in 25 microM egg yolk lecithin, and 100 microM sodium taurocholate. In some reactions, BEL was added at the indicated concentrations and incubated with enzyme at room temperature for 3 min prior to the addition of radiolabeled substrate. After extraction of radiolabeled reaction products and remaining substrate into butanol, samples were spotted on TLC plates, overlaid with oleic acid standard, dried, and developed in chloroformlmethanol/NH4OH (65:25:5). The region of the plate corresponding to the oleic acid standard (visualized by iodine staining) was scraped into scintillation vials and quantified by liquid scintillation spectrometry.
(§2) To determine whether the three new iPLA2 family members were inhibitable by BEL, each enzyme was pre-incubated with 0.1-2 microM BEL or ethanol vehicle alone prior to measuring triolein lipase activity (FIG. 5). […] Considering the hydrophobic nature of the acyl-glycerol substrates of iPLA2epsilon, iPLA2zeta, and iPLA2eta identified herein, it is not surprising that BEL would have access to the active sites of these enzymes.

The target in a further assay is T2, iPLA2eta (Homo sapiens, UniProt P41247).
T2 construct: Full-length human iPLA2zeta (TTS-2.2) and iPLA2eta (GS2) were amplified by PCR; made in house; host or cells: Sf9 insect cells (baculovirus)
T2 sequence (P41247 1-253): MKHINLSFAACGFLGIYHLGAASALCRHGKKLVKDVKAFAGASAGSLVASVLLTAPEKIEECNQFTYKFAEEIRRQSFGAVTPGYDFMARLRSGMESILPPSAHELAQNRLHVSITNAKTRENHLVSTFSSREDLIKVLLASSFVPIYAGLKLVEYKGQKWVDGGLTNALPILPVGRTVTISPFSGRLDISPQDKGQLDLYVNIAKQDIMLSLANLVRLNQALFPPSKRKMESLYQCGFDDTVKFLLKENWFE
Briefly: Triolein lipase activity inhibition by BEL. The following applies: pre-incubated with 0.1-2 microM BEL prior to substrate. Type of assay: biochemical. Here is the method:
as §1, §2

A further assay addresses T3, iPLA2zeta (Homo sapiens, UniProt Q96AD5, L481P).
T3 construct: Full-length human iPLA2zeta (TTS-2.2) and iPLA2eta (GS2) were amplified by PCR; made in house; host or cells: Sf9 insect cells (baculovirus)
T3 sequence (Q96AD5 with tags, fused parts or gaps L481P): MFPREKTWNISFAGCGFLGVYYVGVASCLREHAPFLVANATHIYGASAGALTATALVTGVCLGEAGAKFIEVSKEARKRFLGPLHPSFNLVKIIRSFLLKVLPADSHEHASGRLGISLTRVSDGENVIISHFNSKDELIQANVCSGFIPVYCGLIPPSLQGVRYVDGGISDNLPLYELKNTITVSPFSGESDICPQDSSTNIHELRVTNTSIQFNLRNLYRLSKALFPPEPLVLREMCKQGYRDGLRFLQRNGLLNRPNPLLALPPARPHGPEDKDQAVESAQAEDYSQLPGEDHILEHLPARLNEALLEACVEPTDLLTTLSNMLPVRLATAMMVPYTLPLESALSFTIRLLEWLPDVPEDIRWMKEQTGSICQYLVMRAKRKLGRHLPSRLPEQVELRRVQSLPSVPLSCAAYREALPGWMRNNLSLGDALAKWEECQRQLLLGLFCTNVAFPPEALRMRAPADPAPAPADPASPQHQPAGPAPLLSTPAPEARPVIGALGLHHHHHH
Briefly: Triolein lipase activity inhibition by BEL. Type of assay: biochemical. Conditions: pre-incubated with 0.1-2 microM BEL prior to substrate. The protocol:
as §1, §2

The target in assay [1] is iPLA2epsilon, iPLA2zeta, and iPLA2eta. Put plainly: Triglyceride lipase activity inhibition, summary over the three isoforms. Type of assay: biochemical, human. Conditions: range over iPLA2epsilon, zeta, eta; read-out: IC50, triglyceride lipase activity of each of the three isoforms. Here is the method: as §1
For the next assay, the target named is T4, iPLA2beta (Homo sapiens, UniProt O60733).
T4 sequence (O60733 1-806): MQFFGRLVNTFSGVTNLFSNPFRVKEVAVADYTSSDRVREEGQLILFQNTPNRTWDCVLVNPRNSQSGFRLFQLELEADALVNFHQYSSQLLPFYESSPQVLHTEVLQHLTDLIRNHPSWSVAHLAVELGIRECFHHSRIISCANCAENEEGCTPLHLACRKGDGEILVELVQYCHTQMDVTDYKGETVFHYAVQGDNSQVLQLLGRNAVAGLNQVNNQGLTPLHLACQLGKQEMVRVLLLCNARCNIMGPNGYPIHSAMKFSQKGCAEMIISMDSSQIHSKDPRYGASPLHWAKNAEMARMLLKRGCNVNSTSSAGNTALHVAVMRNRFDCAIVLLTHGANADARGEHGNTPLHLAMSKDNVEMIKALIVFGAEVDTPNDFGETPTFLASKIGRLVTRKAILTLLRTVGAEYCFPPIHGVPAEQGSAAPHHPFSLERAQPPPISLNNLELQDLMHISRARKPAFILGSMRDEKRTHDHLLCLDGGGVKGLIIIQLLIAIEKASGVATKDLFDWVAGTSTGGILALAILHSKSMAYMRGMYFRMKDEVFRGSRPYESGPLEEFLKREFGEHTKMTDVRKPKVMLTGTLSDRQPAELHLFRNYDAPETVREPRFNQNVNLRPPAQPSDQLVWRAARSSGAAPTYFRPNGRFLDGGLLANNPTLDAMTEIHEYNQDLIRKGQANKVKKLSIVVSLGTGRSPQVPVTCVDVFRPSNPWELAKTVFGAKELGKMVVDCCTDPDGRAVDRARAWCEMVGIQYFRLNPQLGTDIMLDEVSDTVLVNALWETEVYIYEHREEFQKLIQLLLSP
The following applies: previously demonstrated (refs 37-39); cited from earlier work.

The target of the next assay is T5, iPLA2gamma (Homo sapiens, UniProt Q9NP80).
T5 sequence (Q9NP80 1-782): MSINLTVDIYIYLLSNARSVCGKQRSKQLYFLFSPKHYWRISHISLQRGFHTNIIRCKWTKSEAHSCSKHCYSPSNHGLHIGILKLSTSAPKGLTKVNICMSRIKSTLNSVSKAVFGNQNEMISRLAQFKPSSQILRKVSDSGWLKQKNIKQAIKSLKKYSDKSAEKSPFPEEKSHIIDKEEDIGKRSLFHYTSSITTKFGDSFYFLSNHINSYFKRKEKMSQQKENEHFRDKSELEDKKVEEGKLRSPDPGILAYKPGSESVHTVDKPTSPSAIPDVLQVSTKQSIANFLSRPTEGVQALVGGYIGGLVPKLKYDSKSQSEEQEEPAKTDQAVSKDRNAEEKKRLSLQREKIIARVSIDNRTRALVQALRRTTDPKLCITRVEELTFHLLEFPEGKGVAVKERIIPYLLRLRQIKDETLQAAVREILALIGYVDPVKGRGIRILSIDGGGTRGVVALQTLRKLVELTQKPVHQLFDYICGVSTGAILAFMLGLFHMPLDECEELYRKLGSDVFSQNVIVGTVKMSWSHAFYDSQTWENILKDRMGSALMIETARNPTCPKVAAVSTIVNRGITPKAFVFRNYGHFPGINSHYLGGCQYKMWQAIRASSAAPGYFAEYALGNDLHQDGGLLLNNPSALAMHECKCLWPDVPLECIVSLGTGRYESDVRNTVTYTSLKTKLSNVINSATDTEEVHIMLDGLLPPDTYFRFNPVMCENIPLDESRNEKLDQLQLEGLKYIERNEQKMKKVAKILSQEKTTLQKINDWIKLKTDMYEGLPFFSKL
Conditions: previously demonstrated (refs 37-39); cited from earlier work.

For orientation: IC50 means the concentration at which inhibition is half-maximal. Turning to `O=C1O/C(=C/Br)CCC1c1cccc2ccccc12` (stereo not drawn) [BEL, (E)-6-(bromomethylene)-3-(1-naphthalenyl)-2H-tetrahydropyran-2-one], the IC50 at iPLA2epsilon is ~100 nM; at iPLA2eta, ~100 nM; against iPLA2zeta it was ~500 nM; in assay [1], 100 to 500 nM. For the same compound, the “inhibition of iPLA2beta activity” value at iPLA2beta is listed as “sub to low micromolar concentrations”. The “inhibition of iPLA2gamma activity” value on iPLA2gamma was “sub to low micromolar concentrations”.
